Test results from patent US10258587B2, “Branched chain fatty acids for prevention or treatment of gastrointestinal disorders” (priority 2007, dated 2019).

How the values were obtained:
Bacillus megaterium = conditions: LL-37 mixed in a ratio of 3:1 with vernix lipids; cited from earlier work
Caco-2 cells = experiment: Caco-2 BCFA uptake experiment (18 h incubation, GC/MS of cell lipids); type: in vitro ADME, human; conditions: BCFA-treated Caco-2 cells
Experimental: Twenty-four hours prior to treatment with BCFA, DMEM was replaced with MEM (Minimum Essential Medium). […] Two others served as controls. Cells were incubated for 18 hours, after which media was removed and the cells were thoroughly and carefully washed three times. Cell lipids were extracted and FAME prepared for GC/MS.

LL-37: antimicrobial vernix peptide (LLGDFFRKSKEKIGKEFKRIVQRIKDFLRNLVPRTES; Antibacterial peptide LL-37; UniProt P49913 134-170, looked up)
growth of Bacillus megaterium, peptide mixed with vernix lipids (Bacillus megaterium): further growth inhibition

CC(C)CCCCCCCCCCCCCCCCC(=O)O [iso-20:0, iso-eicosanoic acid]
incorporation of BCFA into monoacylglycerols (MAG) (Caco-2 cells; MAG fraction): favoring
incorporation of BCFA into phospholipids (PL) (Caco-2 cells; PL fraction): selection against
